Experimental data reported in US20230338491A1, “METHOD FOR SCREENING INDIVIDUAL TUMOR NEOANTIGEN PEPTIDE, AND VACCINE FORMULATION THEREOF” (HANGZHOU NEOANTIGEN THERAPEUTICS CO., LTD., priority 2021, published 2023).
Like-named read-outs stand apart in the source and are kept apart here. Ends that are not written are not given here.

Experiment: solubility comparison test in water and mannitol solutions
Type: physicochemical
Source text: Mannitol is a common adjuvant (skeleton forming agent) of freeze-dried preparation, which is used as a carrier to form a hard uniform skeleton so as to improve appearance of the freeze-dried preparation in glass bottles. […] Hydroxyl groups in mannitol molecule can form hydrogen bonds with carbonyl groups in peptide bonds, which cannot directly promote dissolution of polypeptides, but can promote formation of micelle. Therefore, solubilization of mannitol is mainly solubility enhancement after micelle formation. Results of solubility comparison test of the same polypeptide in water and mannitol solutions with different concentrations shown in table 7 as follows: […]

[1] = Solubility in 1% of mannitol solution
[2] = Solubility in 2% of mannitol solution
[3] = 1% of mannitol solution, read-out: Solubility in 1% of mannitol solution
[4] = 2% of mannitol solution, read-out: Solubility in 2% of mannitol solution
[5] = water, read-out: Solubility in water

solubility [1] [µg/mL] | solubility [2] [µg/mL] | solubility (Solubility in water) [µg/mL] | solubility [3] [µg/mL] | solubility [4] [µg/mL] | solubility [5] [µg/mL] | Compound
≥ 1000 | ≥ 1000 | < 100 | – | – | – | CC[C@H](C)[C@H](NC(=O)[C@H](CC(C)C)NC(=O)[C@H](CCC(N)=O)NC(=O)[C@@H](NC(=O)[C@@H](NC(=O)[C@H](CC(C)C)NC(=O)[C@H](C)NC(=O)[C@H](CO)NC(=O)[C@H](CCCCN)NC(=O)CNC(=O)[C@@H](NC(=O)CNC(=O)[C@H](CC(=O)O)NC(=O)[C@H](C)NC(=O)CNC(=O)[C@@H](NC(=O)[C@@H](NC(=O)[C@@H](N)CCCCN)C(C)C)C(C)C)C(C)C)[C@@H](C)O)[C@@H](C)CC)C(=O)N[C@@H](CCC(N)=O)C(=O)N[C@@H](CC(N)=O)C(=O)N[C@@H](Cc1c[nH]cn1)C(=O)O [GWMI01]
– | – | – | ≥ 1000 | ≥ 1000 | < 100 | DIQDLKTCIASTTQNIEQKKK [WJIA11]
– | – | – | ≥ 1000 | ≥ 1000 | 300 | FAEKLTLILQEKYKNYWYPEKPSKGQAY [YMZH17]
– | – | – | ≥ 10000 | ≥ 10000 | < 2000 | FHDQPHLKRKAVCSFQIYAVPWQGT [HMZH51]
– | – | – | > 1000 | > 1000 | < 100 | FITRPPHRFLSLLCLGLRIPQLSV [YMZH19]
≥ 10000 | ≥ 10000 | < 2000 | – | – | – | GQAFKYSSNLLRHMRTHTGEKPF [HMZH60]
– | – | – | ≥ 1000 | ≥ 1000 | < 100 | KEQMMREKEKLMLRLQDYEEKTKK [ZZJI58]
– | – | – | ≥ 10000 | ≥ 10000 | ≤ 1500 | KFKYVGTMEASEDATFNKITRSLQDLQQK [HMZH66]
– | – | – | ≥ 1000 | ≥ 1000 | < 100 | KGFTQGDVGLAMGKLYRNDFSQTTISRFEA [TZQI66]
– | – | – | ≥ 1000 | ≥ 1000 | < 100 | KKKGQQLSGVNAIYFYADQIYLSAGVPEEH [GWMI10]
– | – | – | ≥ 1000 | ≥ 1000 | < 100 | KKKKFVALVLSTLHMLTYGWTRAFEESRYK [ZZJI44]
– | – | – | ≥ 1000 | ≥ 1000 | 300 | KLTLASWGPKMVLLRLEHQFAVGK [YMZH14]
– | – | – | ≥ 1000 | ≥ 1000 | < 100 | KLVFVRKSLNRIEFRECREEILKFLKK [GWMI13]
– | – | – | ≥ 1000 | ≥ 1000 | < 100 | PGWSLTLGLRCSSRLGLPK [LYLI37, PGWSLTLGLRCSSRLGLPK]
– | – | – | ≥ 1000 | ≥ 1000 | 300 | SRKLEDYGEQKSMSISTAKRLAEFLGDQK [HMZH59]
– | – | – | ≥ 1000 | ≥ 1000 | < 100 | SSPAEFFELMKGQIRIAKRRVVMASLYLGT [TZQI51]
– | – | – | ≥ 1000 | ≥ 1000 | < 100 | SVFGDRITGETIRSQNVMAAASK [WKYE17]
– | – | – | ≥ 1000 | ≥ 1000 | < 100 | TSLKGEIAFDPRRAYYLWF [LXJI54, TSLKGEIAFDPRRAYYLWF]
– | – | – | ≥ 1000 | ≥ 1000 | 300 | YKQLTIQVLLDRLVLQRLYPLAIQIKK [YMZH10]
